This is an account of results in patent US20130252916A1, “ORAMUCOSAL PHARMACEUTICAL DOSAGE FORM” (UNIVERSITY OF THE WITWATERSRAND, JOHANNESBURG, priority 2005, published 2013).

The structures appear in SMILES notation.

Data set [1] can be described thus: solubility and dissolution of diluents in water. In kind it is physicochemical. Particulars: lactose compared with mannitol.
The conditions of data set [2]: Windholz et al., 1976; cited from earlier work.

Take `OC[C@H]1O[C@@H](O[C@H]2[C@H](O)[C@@H](O)C(O)O[C@@H]2CO)[C@H](O)[C@@H](O)[C@H]1O` (some centres unmarked) [lactose]: the rate of dissolution result in data set [1] is recorded as “slower rate than mannitol”. Regarding `OC[C@@H](O)[C@@H](O)[C@H](O)[C@H](O)CO` [mannitol], the “solubility (amount of cold water needed to dissolve)” value in data set [2] was 5.5 mL.
